Here are results for 18 compounds from patent US7238813B2, “Chemical compounds” (Smithkline Beecham Corporation, priority 2000, dated 2007).

Where a name gives a salt, the structure may show the parent alone.

Assay [1] has as its target T1, GST-TIE2 (intracellular domains of human TIE2) (Homo sapiens, UniProt Q02763).
T1 construct: made in house
Put plainly: TIE-2 enzyme assay (TIE2-E), LANCE method. It is filed as biochemical. The settings on record: 80 uM ATP. Put shortly: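 Baculovirus GST-TIE2 (human intracellular domain, aa 762–1104) preactivated 30 min at RT with 2 mM ATP, then reacted 30 min at RT with 1 μM D1-15 peptide, 80 uM ATP, 10 mM MgCl2, pH 7.4, 2.4% DMSO. EDTA-stopped; LANCE Eu-anti-pTyr/streptavidin-APC read-out. IC50 by nonlinear regression, reported as pIC50.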

The test system of assay [2] is Human umbilical cord endothelial cells (HUVEC). The assay is described as follows: VEGF-driven cellular proliferation assay: BrdU incorporation assay (VEGF-C). Further details: key to VEGF-C: + = pIC50 of 5.0–6.0; ++ = pIC50 of 6.0–7.0; +++ = pIC50 of > 7.0; − = a negative or inconclusive result. It is filed as cell-based. The conditions noted are these: for IC50: Homo sapiens. As to the method: VFGF-driven Cellular Proliferation Assay: BrdU Incorporation Assay (VEGF-C)
Human umbilical cord endothelial cells (HUVEC, Clonetics, CC2519) were passaged in Type I collagen-coated 100-mm petridishes in EGM-MV medium (Clonetics, CC3125) at 37° C. in a humidified 5% CO2, 95% air incubator. (HUVEC passaged more than 6 times in vitro were discarded and not subjected to assaying.) The cells were harvested using trypsin/EDTA, counted using a haemocytometer and plated at 5000 cells/well in a Type I-collagen coated 96-well plate (Becton Dickinson, 354407) in M199 medium (Gibco BRL, 12340-030) containing 5% FBS (Hyclone, A 1115-L) and gentamicin (at 50 μg/ml, Gibco BRL). After incubation overnight at 37° C., the media were replaced with 100 μl of M199 serum-free medium containing compounds at various concentrations with 0.6% DMSO and gentamicin. The compounds were diluted in serum-free M199 medium from 10 mM stock solutions prepared in 100% DMSO. After a 30 min incubation at 37° C., the cells were fed with 100 μl of serum-free M199 medium containing gentamicin, 0.2% culture-grade bovine serum albumin (BSA, Sigma A1993) and 20 ng/ml of VEGF (R&D systems, 293-VE) or 0.6 ng/ml of basic FGF (R&D systems, 233-FB), and cultured at 37° C. for another 24 h. The cells were pulsed with bromodeoxyuridine (BrdU at 10 μM in serum-free M199) at 37° C. for an additional 24 h. The incorporation of BrdU into the proliferating HUVEC were analyzed using BrdU Cell Proliferation ELISA (Roche Molecular Biochemicals, 1647229) according to the manufacturer's protocols. The optical density at 450 nm was measured with a multilabel counter (ARVO SX, Wallac). The percent inhibition of cell growth was calculated relative to blank control wells. The concentration of test compound that inhibits 50% of cell growth (IC50) was interpolated using nonlinear regression (Levernberg-Marquardt) and the equation, y=Vmax (1−x/(K+x))+Y2, where “K” was equal to the IC50. The IC50, values were converted to pIC50 values, i.e., −log IC50 in Molar concentration.

Assay [3] deals with T2, GST-VEGFR2 (Homo sapiens, UniProt P35968).
T2 construct: GST-VEGFR2, baculovirus expressed recombinant constructs of the intracellular domains of human TIE2 tagged by GST; made in house
T2 sequence (P35968 786-1356 limits assumed): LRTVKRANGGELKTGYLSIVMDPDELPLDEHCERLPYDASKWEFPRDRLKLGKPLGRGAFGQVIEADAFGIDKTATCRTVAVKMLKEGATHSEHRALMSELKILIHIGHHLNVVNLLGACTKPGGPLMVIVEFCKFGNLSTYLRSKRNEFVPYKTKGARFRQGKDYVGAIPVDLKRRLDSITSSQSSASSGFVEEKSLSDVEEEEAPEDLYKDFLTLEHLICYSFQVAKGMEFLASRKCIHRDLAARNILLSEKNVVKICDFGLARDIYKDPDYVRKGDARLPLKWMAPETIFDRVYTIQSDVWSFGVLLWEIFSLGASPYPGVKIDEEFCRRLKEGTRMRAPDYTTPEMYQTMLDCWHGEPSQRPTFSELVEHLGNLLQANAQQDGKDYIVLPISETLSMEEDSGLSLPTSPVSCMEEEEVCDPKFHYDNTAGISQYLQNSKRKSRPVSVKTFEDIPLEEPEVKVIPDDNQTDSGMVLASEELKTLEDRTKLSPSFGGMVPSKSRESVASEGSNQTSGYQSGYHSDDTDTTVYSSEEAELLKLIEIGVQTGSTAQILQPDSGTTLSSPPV
The assay is described as follows: VEGF-R2 enzyme assay (VEGF-E), LANCE method. The settings on record: 75 μM ATP. It is filed as biochemical.

Assay [4] has as its target T3, TIE2 intracellular domain/c-fms extracellular domain (TIE2/c-fms) chimeric protein expressing mouse 3T3 cells (Homo sapiens, UniProt Q02763).
T3 construct: a TIE2 intracellular domain/c-fms extracellular domain (TIE2/c-fms) chimeric protein; expressed in transfected cells; host or cells: mouse 3T3 cells
The assay is described as follows: TIE-2 autophosphorylation assay (TIE2-C), ELISA. The conditions noted are these: TIE2/c-fms 3T3 cells, MCSF activation. It is filed as cell-based. Put shortly:
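Mouse 3T3 cells expressing TIE2 intracellular/c-fms extracellular chimera treated with compound for 1 hr in serum-free DMEM (0.1% DMSO), then stimulated with MCSF. Lysates captured on anti-c-fms plates overnight at 4 °C; phosphotyrosine detected by biotin-PT66/HRP-streptavidin, OD450. IC50 by nonlinear regression, reported as pIC50.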

T1 sequence (Q02763 762-1104): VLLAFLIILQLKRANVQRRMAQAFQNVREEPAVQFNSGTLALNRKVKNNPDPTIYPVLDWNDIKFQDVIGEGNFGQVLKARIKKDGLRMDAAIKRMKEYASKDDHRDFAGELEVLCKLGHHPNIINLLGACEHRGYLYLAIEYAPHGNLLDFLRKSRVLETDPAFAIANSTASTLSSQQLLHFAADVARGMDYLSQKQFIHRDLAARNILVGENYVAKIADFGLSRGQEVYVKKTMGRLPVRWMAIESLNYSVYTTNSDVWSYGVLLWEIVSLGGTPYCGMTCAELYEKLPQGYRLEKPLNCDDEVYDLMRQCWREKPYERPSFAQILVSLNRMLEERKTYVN
T3 sequence (Q02763 770-1124 limits assumed, change not shown): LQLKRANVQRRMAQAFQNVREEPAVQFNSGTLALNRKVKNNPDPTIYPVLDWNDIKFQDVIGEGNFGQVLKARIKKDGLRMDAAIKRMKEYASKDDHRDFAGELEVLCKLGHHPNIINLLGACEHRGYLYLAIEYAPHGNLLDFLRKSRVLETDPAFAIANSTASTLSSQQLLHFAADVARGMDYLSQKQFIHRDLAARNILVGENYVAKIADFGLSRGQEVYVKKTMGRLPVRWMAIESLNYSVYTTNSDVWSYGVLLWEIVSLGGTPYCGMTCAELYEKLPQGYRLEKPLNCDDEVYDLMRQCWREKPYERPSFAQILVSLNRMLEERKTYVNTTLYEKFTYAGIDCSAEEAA

On to `COC(=O)Nc1nc2ccc(Oc3ccc(NC(=O)Nc4cc(C(F)(F)F)ccc4Cl)cc3)nc2[nH]1` [Example 72, Methyl N-(5-(4-((2-chloro-5-(trifluoromethyl)phenyl)aminocarbonylamino)phenoxy)-3,4-diaza-1H-indole-2-yl)carbamate dihydrochloride], for which the IC50 in assay [1] is less than 100 nM; in assay [2], 1000 to 10000 nM; in assay [3], less than 100 nM; in assay [4] it was less than 100 nM.

As to `COC(=O)Nc1nc2ccc(Oc3ccc(NC(=O)Nc4cc(C(F)(F)F)ccc4F)cc3)cc2n1CCN1CCOCC1` [Example 71, Methyl N-(6-(4-((2-fluoro-5-(trifluoromethyl)phenyl)aminocarbonylamino)phenoxy)-1-(2-(4-morpholino)ethyl)-1H-benzimidazol-2-yl)carbamate], the IC50 was less than 100 nM in assay [1], 1000 to 10000 nM in assay [2], less than 100 nM in assay [3] and 100 to 1000 nM in assay [4].

Turning to `COC(=O)Nc1nc2cc(Oc3cccc(NC(=O)Nc4cccc(Cl)c4)c3)ccc2[nH]1` [Example 14, Methyl (5-(3-((3-Chlorophenyl)aminocarbonylamino)phenoxy)-1H-benzimidazol-2-yl)carbamate hydrochloride], the IC50 in assay [1] was 100 to 1000 nM; in assay [2], 100 to 1000 nM; in assay [3], less than 100 nM; in assay [4] it was 100 to 1000 nM.

Turning to `Cn1cnc(CC(=O)Nc2nc3cc(Oc4ccc(NC(=O)Nc5cc(C(F)(F)F)ccc5F)cc4)ccc3[nH]2)c1` [Example 97, N-(5-(4-((2-Fluoro-5-(trifluoromethyl)phenyl)aminocarbonylamino)phenoxy)-1H-benzimidazol-2-yl)(1methyl-1H-imidazol-4-yl)acetamide], the IC50 in assay [1], in assay [2], in assay [3] and in assay [4] was less than 100 nM in each case.

With `COC(=O)Nc1nc2ccc(Sc3ccc(NC(=O)Nc4cccc(C(F)(F)F)c4)cc3)cc2[nH]1` [Example 2, Methyl N-(5-(4-((3-(trifluoromethyl)phenyl)aminocarbonylamino)phenylthio)-1H-benzimidazol-2-yl)carbamate], the IC50 in assay [1] is less than 100 nM; in assay [2], 1000 to 10000 nM; in assay [3], less than 100 nM; in assay [4], less than 100 nM.

In the case of `O=C(Nc1ccc(Oc2ccc3[nH]c(NC(=O)c4ccc5[nH]cnc5c4)nc3c2)cc1)Nc1cc(C(F)(F)F)ccc1F` [Example 89, N-(5-(4-((2-Fluoro-5-(trifluoromethyl)phenyl)aminocarbonylamino)phenoxy)-1H-benzimidazol-2-yl)-5-benzimidazolecarboxamide], the IC50 is less than 100 nM in assay [1], 100 to 1000 nM in assay [2], less than 100 nM in assay [3] and less than 100 nM in assay [4].

In the case of `COC(=O)Nc1nc2cc(Oc3ccc(NC(=O)Nc4cc(F)ccc4F)cc3)ccc2[nH]1` [Example 56, Methyl N-(5-(4-((2,5-difluorophenyl)aminocarbonylamino)phenoxy)-1H-benzimidazol-2-yl)carbamate], the half-maximal inhibitory concentration (IC50) is 100 to 1000 nM in assay [1], less than 100 nM in assay [3] and less than 100 nM in assay [4]. The VEGF-C entry in assay [2] was “−”.

On to `COC(=O)Nc1cn2cc(Oc3ccc(NC(=O)Nc4cc(C(F)(F)F)ccc4F)cc3)ccc2n1` [Example 68, Methyl N-(5-(4-((2-fluoro-5-(trifluoromethyl)phenyl)aminocarbonylamino)phenoxy)-3a-aza-2-indolyl)carbamate], for which the IC50 in assay [1], in assay [2], in assay [3] and in assay [4] was less than 100 nM throughout.

As to `COC(=O)Nc1nc2cc(Oc3ccc(NC(=O)Nc4cc(F)cc(C(F)(F)F)c4)cc3)ccc2[nH]1` [Example 50, Methyl N-(5-(4-((3-fluoro-5-(trifluoromethyl)phenyl)aminocarbonylamino)phenoxy)-1H-benzimidazol-2-yl)carbamate], the IC50 in assay [1] was less than 100 nM; in assay [2] it was 100 to 1000 nM; in assay [3], less than 100 nM; in assay [4], less than 100 nM.

For the compound `COC(=O)Nc1nc2cc(Oc3ccc(NC(=O)Nc4cccc(SC)c4)cc3)ccc2[nH]1` [Example 48], the IC50 in assay [1], in assay [3] and in assay [4] was less than 100 nM each time. In addition, in assay [2], the VEGF-C result is given as “−”.

For `CN(C)CC(=O)Nc1nc2cc(Oc3ccc(NC(=O)Nc4cc(C(F)(F)F)ccc4F)cc3)ccc2[nH]1` [Example 102], the IC50 in assay [1], in assay [2], in assay [3] and in assay [4] was less than 100 nM in each case.

Regarding `COC(=O)Nc1nc2ccc(Sc3ccc(NC(=O)Nc4cc(OC)cc(OC)c4)cc3)cc2[nH]1` [Example 5, Methyl N-(5-(4-((3,5-dimethoxyphenyl)aminocarbonylamino)phenylthio)-1H-benzimidazol-2-yl)carbamate], the results for the 50% inhibitory concentration (IC50) in assay [1], in assay [3] and in assay [4] were 100 to 1000 nM, 1000 to 10000 nM and less than 100 nM, respectively. Moreover, the VEGF-C entry in assay [2] is “−”.

As for `CC(C)CCC(=O)Nc1nc2cc(Oc3ccc(NC(=O)Nc4cc(C(F)(F)F)ccc4F)cc3)ccc2[nH]1` [Example 28, N-(5-(4-((2-Fluoro-5-(trifluoromethyl)phenyl)aminocarbonylamino)phenoxy)-1H-benzimidazol-2-yl)-4-methylpentamide], the IC50 was less than 100 nM in assay [1], 100 to 1000 nM in assay [2], less than 100 nM in assay [3] and less than 100 nM in assay [4].

With `COC(=O)Nc1nc2cc(Oc3ccc(NC(=O)Nc4cccc(C(F)(F)F)c4)cn3)ccc2[nH]1` [Example 38], the IC50 in assay [1], in assay [3] and in assay [4] was less than 100 nM in each case. In addition, the VEGF-C result in assay [2] is given as “−”.

Consider `COC(=O)Nc1nc2cc(Oc3ccc(NC(=O)Nc4cc(C)ccc4F)cc3)ccc2[nH]1.Cl` [Example 55, Methyl N-(5-(4-((2-fluoro-5-methylphenyl)aminocarbonylamino)phenoxy)-1H-benzimidazol-2-yl)carbamate hydrochloride], for which the IC50 in assay [1], in assay [3] and in assay [4] was less than 100 nM each time. Also, the VEGF-C entry in assay [2] was “−”.

With `COC(=O)Nc1nc2cc(Oc3ccc(NC(=O)Nc4cc([N+](=O)[O-])ccc4F)cc3)ccc2[nH]1` [Example 46, Methyl N-(5-(4-((2-fluoro-5-nitrophenyl)aminocarbonylamino)phenoxy)-1H-benzimidazol-2-yl)carbamate], the IC50 in assay [1], in assay [3] and in assay [4] was less than 100 nM each time. For the same compound, the VEGF-C entry in assay [2] is on record as “−”.

Consider `COC(=O)Nc1nc2cc(Oc3ccc(NC(=O)Nc4cc([N+](=O)[O-])ccc4C)cc3)ccc2[nH]1` [Example 47, Methyl N-(5-(4-((2-methyl-5-nitrophenyl)aminocarbonylamino)phenoxy)-1H-benzimidazol-2-yl)carbamate], for which the IC50 in assay [1], in assay [3] and in assay [4] was less than 100 nM in each case. Also, the VEGF-C result in assay [2] is “−”.

In the case of `O=C(Nc1ccc(Oc2ccc3[nH]c(NC(=O)C4CCCC4)nc3c2)cc1)Nc1cc(C(F)(F)F)ccc1F` [Example 26, N-(5-(4-((2-Fluoro-5-(trifluoromethyl)phenyl)aminocarbonylamino)phenoxy)-1H-benzimidazol-2-yl)cyclopentamide], the half-maximal inhibitory concentration (IC50) is less than 100 nM in assay [1], 100 to 1000 nM in assay [2], less than 100 nM in assay [3] and 100 to 1000 nM in assay [4].
